Measured values published in patent US6368831B1, “Treatment of hyperproliferative disorders” (Childrens Hospital Los Angeles, priority 1998, dated 2002).

Test system: CHLA-90 cells
Assay: Morphological assessment of apoptosis and necrosis (Hoechst 33342 / propidium iodide), CHLA-90
Format: cell-based, human
Method: Methods. To determine the manner in which 4-HPR or HPR+safingol induced cell death in neuroblastoma cells, morphological evidence of apoptosis and/or necrosis was assessed in CHLA-90 cells in the presence or absence of a specific as inhibitor of apoptosis, the neural cell-penetrant, pan-caspase enzyme inhibitor, BOC-d-fink (Enzyme Systems Products, Livermore, Calif.). […] CHLA-90 cells were plated in duplicate in whole medium in Lab Tek chamber slides (Nunc, Naperville, Ill.), allowed to attach for 24 hours, and then treated in the presence or absence of BOC-d-fink (40 μM) for one hour prior to treatment with HPR (10 μM). Control cells were treated with vehicle solvents of 0. 1% ethanol (4-HPR) and/or 0.2% DMSO (BOC-d-fink). Morphological features of apoptosis (DNA condensation and/or apoptotic bodies) were visualized in undetached cells at +24 or +48 hours using blue nuclear fluorescence induced by the supravital DNA stain Hoechst 33342 (10 μg/ml for 30 mins at 37° C.), while necrotic cells and advanced apoptotic cells were recognized by red fluorescent staining with propidium iodide (0.5 μM/ml). Red fluorescently-staining cells with condensed nuclear remnants were scored as apoptotic cells. […] Mutiple random fields of cells (of ˜100-500 cells each) were counted and photographed for viable cells, apoptotic cells, and necrotic cells. […]

CC1=C(/C=C/C(C)=C/C=C/C(C)=C/C(=O)Nc2ccc(O)cc2)C(C)(C)CCC1 [HPR, all-trans-N-(4-hydroxyphenyl)retinamide]
morphological nuclear changes indicative of apoptosis (HPR 10 μM alone, relative to controls (P=0.006)): induced significant apoptosis | morphological evidence of necrosis (HPR 10 μM, relative to controls (P=0.002)): significant morphological evidence of necrosis
